One assay has as its target T1, Human NPY2 receptor (Homo sapiens, UniProt P49146).
T1 sequence (P49146 1-381): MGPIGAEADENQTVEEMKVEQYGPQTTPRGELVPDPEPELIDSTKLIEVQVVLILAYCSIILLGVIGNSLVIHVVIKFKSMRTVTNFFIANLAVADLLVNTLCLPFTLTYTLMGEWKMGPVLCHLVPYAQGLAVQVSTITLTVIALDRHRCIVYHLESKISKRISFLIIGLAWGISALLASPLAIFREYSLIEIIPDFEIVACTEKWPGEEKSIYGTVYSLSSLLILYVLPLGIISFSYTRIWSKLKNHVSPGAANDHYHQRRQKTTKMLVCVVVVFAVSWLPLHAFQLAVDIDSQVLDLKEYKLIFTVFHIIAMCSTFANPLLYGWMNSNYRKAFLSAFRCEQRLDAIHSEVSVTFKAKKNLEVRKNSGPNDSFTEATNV
In words: Human NPY2 Receptor Binding Assay. Conditions: [125I]PYY; read-out: hPPY2 IC50.

The next assay deals with T2, Human NPY5 Receptor (Homo sapiens, UniProt Q15761).
T2 sequence (Q15761 1-445): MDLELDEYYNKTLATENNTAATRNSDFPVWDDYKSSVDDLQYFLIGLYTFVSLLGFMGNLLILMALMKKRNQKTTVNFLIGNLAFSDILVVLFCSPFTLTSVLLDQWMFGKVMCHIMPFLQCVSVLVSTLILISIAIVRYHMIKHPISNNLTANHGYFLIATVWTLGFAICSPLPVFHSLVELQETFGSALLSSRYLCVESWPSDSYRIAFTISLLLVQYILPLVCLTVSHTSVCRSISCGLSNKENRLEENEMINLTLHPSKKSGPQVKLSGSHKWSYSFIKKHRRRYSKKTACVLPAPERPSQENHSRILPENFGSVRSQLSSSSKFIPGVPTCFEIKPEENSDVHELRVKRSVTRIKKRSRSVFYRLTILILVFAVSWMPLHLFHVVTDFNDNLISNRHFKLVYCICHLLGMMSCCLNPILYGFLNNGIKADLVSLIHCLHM
In words: Human NPY5 Receptor Binding Assay. Conditions: [125I]PYY; read-out: hNPY5 IC50.

A further assay deals with T3, Rat NPY5 Receptor (Rattus norvegicus, UniProt Q63634).
T3 sequence (Q63634 1-445): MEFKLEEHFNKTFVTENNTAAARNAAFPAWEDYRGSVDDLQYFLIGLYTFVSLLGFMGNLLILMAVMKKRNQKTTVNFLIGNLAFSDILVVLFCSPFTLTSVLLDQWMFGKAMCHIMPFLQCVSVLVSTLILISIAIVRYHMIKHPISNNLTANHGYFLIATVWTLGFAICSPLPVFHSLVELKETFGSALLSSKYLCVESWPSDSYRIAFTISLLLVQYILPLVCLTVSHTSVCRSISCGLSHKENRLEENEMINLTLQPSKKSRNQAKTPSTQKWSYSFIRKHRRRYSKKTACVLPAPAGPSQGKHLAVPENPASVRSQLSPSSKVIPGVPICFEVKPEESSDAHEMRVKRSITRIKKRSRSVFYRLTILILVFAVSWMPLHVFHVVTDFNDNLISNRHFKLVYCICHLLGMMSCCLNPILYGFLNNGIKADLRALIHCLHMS
In words: Rat NPY5 Receptor Binding Assay. As to conditions: [125I]PYY; read-out: rNPY5 IC50.

Protocol for Human NPY2 receptor: Binding assays were performed on GF/C Millipore 96-well plates pretreated with 0.02% polyethylenimine. The binding buffer for rat Y2 binding is Krebs-Ringer bicarbonate (pH 7.4) containing 0.01% BSA and 0.005% bacitracin. Samples consist of membrane protein, 25 pM [125I]PYY and drug dilution. Nonspecific binding is defined by 1 μpM NPY.
After a 2 hour incubation at room temperature with constant mixing, the samples are aspirated on a vacuum manifold, and rinsed with ice-cold binding buffer. The amount of radioactivity in each well is quantitated with either gamma counting or liquid scintillation.
Protocol for Human NPY5 Receptor: Human and Rat NPY5 Receptor Binding Assays
Binding assays are performed on GF/C Millipore 96-well plates pretreated with 0.02% polyethylenimine. The binding buffer is 25 mM Tris, 120 mM NaCl, 5 mM KCl, 1.2 mM KH2 PO4, 2.5 mM CaCl2, 1.2 mM MgSO4, 0.1% BSA and 0.5 mg/ml bacitracin, pH 7.4. Samples consist of membrane protein, 75-100 pM [125I]PYY (porcine, NEN-DuPont) and drug dilution. Nonspecific binding is defined by 1 μM PYY. After a 2 hour incubation at room temperature with constant mixing, the samples are aspirated on a vacuum manifold, and rinsed with ice-cold binding buffer. The amount of radioactivity in each well is quantitated with either gamma counting or liquid scintillation. IC50 values, which correspond to 50% inhibition of specific binding, are determined with non-linear regression analysis.

A word on the IC50: it is the concentration needed to halve the response being measured. Regarding `O=C(CSc1ccc(O)cc1)Nc1ccc(C2CCCCC2)cc1` [Compound 55], the IC50 at Human NPY2 receptor was above 5000 nM; at Human NPY5 Receptor, 1700 nM.
The matching figures for `O=C(CSc1nnnn1-c1ccccc1)Nc1ccc(C2CCCCC2)cc1` [Compound 52]: above 5000 nM and 730 nM.
On the same counts, the results for `O=C(CSCCO)Nc1ccc(C(=O)c2ccccc2)cc1` [Compound 40, N-(4-Benzoyl-phenyl)-2-(2-hydroxy-ethylsulfanyl)-acetamide] are above 5000 nM and 690 nM.
The matching figures for `Nc1nnc(SCC(=O)Nc2ccc(C(=O)c3ccccc3)cc2)s1` [Compound 61]: above 5000 nM and 510 nM.
With `Nc1nc(SCC(=O)Nc2ccc(C3CCCCC3)cc2)c2[nH]cnc2n1` [Compound 58, 2-(2-Amino-7H-purin-ylsulfanyl)-N-(4-cyclohexyl-phenyl)-acetamide], the IC50 at Human NPY2 receptor was above 5000 nM; at Human NPY5 Receptor, above 1000 nM.
On to `O=C(CSc1nnc(NC2CCCCC2)s1)Nc1ccc(C(=O)c2ccccc2)cc1` [Compound 123, N-(4-Benzoyl-phenyl)-2-(5-cyclohexylamino [1,3,4]thiadiazol-2-ylsulfanyl)-acetamide], for which the IC50 at Human NPY5 Receptor is 420 nM; on Rat NPY5 Receptor it was 530 nM.
For `Cn1c(CO)cnc1SCC(=O)Nc1ccc(C2CCCCC2)cc1` [Compound 114, N-(4-Cyclohexyl-phenyl)-2-(5-hydroxymethyl-1-methyl-1H-imidazol-2-ylsulfanyl)-acetamide], the results for the IC50 on Human NPY5 Receptor and at Rat NPY5 Receptor were 900 nM and 390 nM, respectively.
The matching figures for `O=C(CSc1nnc(CSCCOc2ccc(Cl)cc2Cl)o1)Nc1ccc(C(=O)c2ccccc2)cc1` [Compound 124]: above 1000 nM and 2300 nM.
On the same counts, the results for `CC(Sc1nnnn1C)C(=O)Nc1ccc(C(C)(C)C)cc1` (centres unmarked) [Compound 125, N-(4-tert-Butyl-phenyl)-2-(1-methyl-1H-tetrazol-5-ylsulfanyl)-propionamide] are 1000 nM and 360 nM.
On the same counts, the results for `O=C(CSc1nc(-c2ccccc2)no1)Nc1ccc(C2CCCCC2)cc1` [Compound 90, N-(4-Cyclohexyl-phenyl)-2-(3-phenyl-[1,2,4]oxadiazol-ylsulfanyl)-acetamide] are 260 nM and 340 nM.
With `Cc1nnc(SCC(=O)Nc2ccc(C3CCCCC3)cc2)s1` [Compound 91, N-(4-Cyclohexyl-phenyl)-2-(5-methyl [1,3,4]thiadiazol-2-ylsulfanyl)-acetamide], the IC50 on Human NPY5 Receptor was determined as 80 nM; at Rat NPY5 Receptor, 84 nM.
The matching figures for `O=C(CSc1nnc(NC2CCCCC2)s1)Nc1ccc(C2CCCCC2)cc1` [Compound 116]: 1300 nM and 2000 nM.
On to `O=C(CSCc1cccc(CS)c1)Nc1ccc(C(=O)c2ccccc2)cc1` [Compound 101, N-(4-Benzoyl-phenyl)-2-(3-mercaptomethyl-benzylsulfanyl)-acetamide], for which the figures for the IC50 at Human NPY5 Receptor and on Rat NPY5 Receptor were 1400 nM and 1500 nM, respectively.
Regarding `COc1ccc(-c2nnc(SCC(=O)Nc3ccc(C(=O)c4ccccc4)cc3)n2-c2cccc(C(F)(F)F)c2)cc1` [Compound 120, N-(4-Benzoyl-phenyl)-2-(5-(4-methoxy-phenyl)-4-(3-trifluoromethyl-phenyl)-4H-[1,2,4]triazol-3-ylsulfanyl]-acetamide], the figures for the half-maximal inhibitory concentration (IC50) on Human NPY5 Receptor and at Rat NPY5 Receptor were 1300 nM and 530 nM, respectively.
On the same counts, the results for `O=C(CSc1nnc(-c2ccco2)[nH]1)Nc1ccc(C2CCCCC2)cc1` [Compound 111, N-(4-Cyclohexyl-phenyl)-2-(5-furan-2-yl-4H-[1,2,4]triazol-3-ylsulfanyl)-acetamide] are 1400 nM and 570 nM.
As for `O=C(CSc1nnnn1-c1ccc(O)cc1)Nc1ccc(C2CCCCC2)cc1` [Compound 92, N-(4-Cyclohexyl-phenyl)-2-[1-(4-hydroxy-phenyl)-1H-tetrazo-ylsulfanyl]-acetamide], the values for the IC50 on Human NPY5 Receptor and on Rat NPY5 Receptor were 81 nM and 72 nM, respectively.
On the same counts, the results for `O=C(CSc1nnc(-c2ccccc2)o1)Nc1ccc(C2CCCCC2)cc1` [Compound 94, N-(4-Cyclohexyl-phenyl)-2-(5-phenyl-[1,3,4]oxadiazo-2-ylsulfanyl)-acetamide] are 670 nM and 1200 nM.
For `CC(Sc1nnnn1C)C(=O)Nc1ccc(C2CCCCC2)cc1` (centres unmarked) [Compound 127, N-(4-Cyclohexyl-phenyl)-2-(1-methyl-1H-tetrazol-5-ylsulfanyl)-propionamide], the IC50 was 59 nM at Human NPY5 Receptor and 50 nM at Rat NPY5 Receptor.
As for `COC(=O)c1cnc(SCC(=O)Nc2ccc(C(=O)c3ccccc3)cc2)n1C` [Compound 122, 2-[(4-Benzoyl-phenylcarbamoyl)-methylsulfanyl]-3-methyl-3H-imidazole-4-carboxylic acid methyl ester], the results for the IC50 at Human NPY5 Receptor and on Rat NPY5 Receptor were 1500 nM and above 1000 nM, respectively.
Turning to `O=C(CSc1nccc(C(F)(F)F)n1)Nc1ccc(C(=O)c2ccccc2)cc1` [Compound 83, N-(4-Benzoyl-phenyl)-2-(4-trifluoromethylpyrimidin-2-ylsulfanyl)-acetamide], the IC50 on Human NPY5 Receptor amounted to 210 nM; at Rat NPY5 Receptor, 200 nM.
The matching figures for `O=C(CSC1CCCC1)Nc1ccc(C(=O)c2ccccc2)cc1` [Compound 109, N-(4-Benzoyl-phenyl)-2-cyclopentylsulfanyl-acetamide]: 610 nM and 370 nM.
The matching figures for `O=C(CSc1nnnn1-c1ccc(O)cc1)Nc1ccc(C(=O)c2ccccc2)cc1` [Compound 87, N-(4-Benzoyl-phenyl)-2-[1-(4-hydroxy-phenyl)-1H-tetrazol-5-ylsulfanyl]-acetamide]: 100 nM and 120 nM.
For the compound `CSc1sc(-c2nnc(SCC(=O)Nc3ccc(C(=O)c4ccccc4)cc3)n2C)c2c1C=CCC2` [Compound 119], the IC50 amounted to 630 nM at Human NPY5 Receptor and 1500 nM at Rat NPY5 Receptor.
In the case of `O=C(CSc1nnc(-c2ccccc2)o1)Nc1ccc(C(=O)c2ccccc2)cc1` [Compound 89, N-(4-Benzoyl-phenyl)-2-(5-phenyl [1,3,4]oxadiazol-2-ylsulfanyl)-acetamide], the IC50 on Human NPY5 Receptor came to 590 nM; at Rat NPY5 Receptor, 720 nM.
With `COC(=O)c1cnc(SCC(=O)Nc2ccc(C3CCCCC3)cc2)n1C` [Compound 115], the figures for the IC50 at Human NPY5 Receptor and on Rat NPY5 Receptor were 900 nM and 360 nM, respectively.
For `Nc1cccc(SCC(=O)Nc2ccc(C(=O)c3ccccc3)cc2)c1` [Compound 102, 2-(3-Amino-phenylsulfanyl)-N-(4-benzoyl-phenyl)-acetamide], the half-inhibitory concentration (IC50) on Human NPY5 Receptor was 340 nM; on Rat NPY5 Receptor, 310 nM.
As for `O=C(CSc1nc(-c2ccccc2)no1)Nc1ccc(C(=O)c2ccccc2)cc1` [Compound 85, N-(4-Benzoyl-phenyl)-2-(3-phenyl-[1,2,4]oxadiazol-ylsulfanyl)-acetamide], the IC50 at Human NPY5 Receptor is 200 nM; at Rat NPY5 Receptor, 220 nM.
On the same counts, the results for `O=C(CSCc1cccc(CS)c1)Nc1ccc(C2CCCCC2)cc1` [Compound 96, N-(4-Cyclohexyl-phenyl)-2-(3-mercaptomethyl-benzylsulfanyl)-acetamide] are 850 nM and 610 nM.
The matching figures for `Cn1c(CO)cnc1SCC(=O)Nc1ccc(C(=O)c2ccccc2)cc1` [Compound 121, N-(4-Benzoyl-phenyl)-2-(5-hydroxymethyl-1-methyl-1H-imidazol-2-ylsulfanyl)acetamide]: 910 nM and 2800 nM.
In the case of `O=C(CSCc1ccco1)Nc1ccc(C(=O)c2ccccc2)cc1` [Compound 110, N-(4-Benzoyl-phenyl)-2-(furan-2-ylmethylsulfanyl)-acetamide], the IC50 at Human NPY5 Receptor is 290 nM; at Rat NPY5 Receptor, 340 nM.
The matching figures for `Cn1nnnc1SCC(=O)Nc1ccc2c(c1)Cc1ccccc1-2` [Compound 130, N-(9H-Fluoren-2-yl)-2-(1-methyl-1H-tetrazol-5-ylsulfanyl)-acetamide]: 160 nM and 150 nM.

The values above are taken from patent publication US6245817A, “NPY5 receptor antagonists and methods for using same” (Bayer Corporation, priority 1999, dated 2001).
